Measurements published in patent publication EP3027591B1, “NOVEL DERIVATIVES OF A 3,4-DIHYDROISOQUINOLINE-3-CARBOXYLIC ACID HAVING ANTI-CANCER PROPERTIES, A METHOD FOR THEIR SYNTHESIS, PHARMACEUTICAL COMPOSITIONS COMPRISING SAID DERIVATIVES, AND THEIR USE” (Narodowy Instytut Zdrowia Publicznego Panstwowy Zaklad …, priority 2013, dated 2015).
Values after ≈ are worked out from the molar mass of the structure shown. Where two headings read alike, the source gives them in different places.

How the values were obtained:
[1] = target: T1, pig kidney microsomal leucyl aminopeptidase, Type IV-S (Sus scrofa, UniProt P15145); assay: Leucyl aminopeptidase inhibition (L-leucine p-nitroanilide substrate, absorbance 405 nm); assay type: biochemical; conditions: pre-incubation 30 minutes at 37 °C, pH 8.5; IC50 by linear regression
T1 construct: pig kidney microsomal leucyl aminopeptidase, Type IV-S (Sigma-Aldrich) 3.5 mg of protein/ml; purchased Sigma-Aldrich; host or cells: pig kidney (microsomal fraction)
T1 sequence (P15145 1-963): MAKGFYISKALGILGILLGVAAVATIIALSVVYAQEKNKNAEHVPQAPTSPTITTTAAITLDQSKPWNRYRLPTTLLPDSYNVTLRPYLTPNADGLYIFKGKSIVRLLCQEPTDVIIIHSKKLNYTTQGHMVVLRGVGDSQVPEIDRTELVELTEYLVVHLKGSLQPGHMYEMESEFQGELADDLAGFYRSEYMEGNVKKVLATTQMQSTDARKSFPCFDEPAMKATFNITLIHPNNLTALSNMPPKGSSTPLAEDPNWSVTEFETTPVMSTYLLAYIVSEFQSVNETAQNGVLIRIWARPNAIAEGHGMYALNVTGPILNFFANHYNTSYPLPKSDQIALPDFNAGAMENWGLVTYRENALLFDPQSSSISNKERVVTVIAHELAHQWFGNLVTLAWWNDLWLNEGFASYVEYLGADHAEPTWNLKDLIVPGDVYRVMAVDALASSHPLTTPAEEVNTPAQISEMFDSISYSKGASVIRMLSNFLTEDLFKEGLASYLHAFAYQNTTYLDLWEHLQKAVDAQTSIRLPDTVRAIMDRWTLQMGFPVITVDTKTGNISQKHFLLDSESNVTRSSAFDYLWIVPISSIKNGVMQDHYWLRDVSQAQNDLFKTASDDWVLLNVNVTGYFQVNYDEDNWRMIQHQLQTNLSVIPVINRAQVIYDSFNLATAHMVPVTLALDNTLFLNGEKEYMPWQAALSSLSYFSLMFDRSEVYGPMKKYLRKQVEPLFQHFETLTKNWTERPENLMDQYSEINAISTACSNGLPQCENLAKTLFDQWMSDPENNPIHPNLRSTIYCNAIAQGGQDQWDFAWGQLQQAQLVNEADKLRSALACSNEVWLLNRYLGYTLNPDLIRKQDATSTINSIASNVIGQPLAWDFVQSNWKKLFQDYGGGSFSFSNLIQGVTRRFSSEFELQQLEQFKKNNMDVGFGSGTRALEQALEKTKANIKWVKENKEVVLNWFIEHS
Procedure: Leucyl aminopeptidase inhibition according to Cahan R., Hetzroni E., Nisnevitch M., Nitzan Y.: Purification and Identification of a Novel Leucine Aminopeptidase from Bacillus Thuringiensis israelensis. Curr. Microbial (2007) 55: 413-419.
• 1. Enzyme: pig kidney microsomal leucyl aminopeptidase, Type IV-S (Sigma-Aldrich) 3.5 mg of protein/ml, 28 U/mg of protein; diluted with 0.02M Tris-HCl + 0.5 mM CaCl2 buffer pH=8.5 until activity 0.01225U achieved • 2. Substrate: L-leucine p-nitroanilide: 4.2 mg / 269 µl DMSO; solution diluted 1:19 with 0.02 M Tris-HCl buffer, pH = 8.5 + 0.5 mM CaCl2 • 3. 0.02 M Tris-HCl buffer, pH = 8.5 + 0.5 mM CaCl2 • 4. DMSO, inhibitor solution in DMSO
5 µl of leucyl aminopeptidase ([…]), 70 µl of Tris, 5 µl of inhibitor solution in different concentrations (in DMSO) were added to the wells of a microtitration plate, followed by pre-incubation for 30 minutes at 37 °C. Next, 20µl of diluted L-leucine p-nitroanilide solution was added, whereupon the reaction mixture was incubated for 20 minutes at 37 °C, with measurement of absorbance changes for wavelength 405 nm (Fluorostar, Omega, BMG Labtech). The control sample for the enzyme contained analogous components, while instead of the inhibitor solution DMSO (5 µl) was added.
For each inhibitor concentration the percentage inhibition was calculated. The inhibitor concentration required for 50% of enzyme activity inhibition (IC50) was calculated based on linear regression data between the percentage inhibition and the concentration for a given inhibitor.

[2] = system: MCF-10 (normal mammary gland cells); assay: Cytotoxic activity against normal cells, SRB test; assay type: cell-based
Procedure: (§1) 4.3. Cytotoxic activity evaluation against normal cell lines with diverse tissue origins using the SRB test:
(§2) • a) normal mouse fibroblasts (BALB/3T3), • b) normal mammary gland cells (MCF-10), • c) normal human epithelium (HLMEC)
(§3) The stock solution of the tested compound with concentration of 20 mg/ml was prepared day before the analysis by dissolving the preparation in DMSO, followed by storage in -20°C. After 24 hours the preparation was thawed and diluted with the culture medium. The compounds were tested in concentrations of 100, 10, 1, 0.1 0.01 µg/ml.
(§4) The following human cancer cell lines were used in the study: HL-60 (promyelocytic leukemia), HL-60/MX2 (promyelocytic leukemia, line resistant to mitoxantrone), MCF7 (mammary gland cancer), LoVo (colorectal cancer), LoVo/Dx (colorectal cancer with multidrug resistance), HCV29T (bladder cancer), A498 (kidney cancer), A549 (lung cancer) and LNCaP (prostate cancer), as well as normal cell lines: BALB3T3 (normal mouse fibroblasts), MCF-10 (normal mammary gland cells) and HLMEC (normal human endothelium).
(§5) The cells in the phase of logarithmic growth were seeded on a 96-well plate (Sarsted) in quantity of 1 x 10^4 cells/well, and then incubated at 37°C, 5% CO2 for 24 hours. Subsequently, the tested compound was added in different concentrations and the incubation was carried out. […] For each assay the samples containing predetermined preparation concentrations were applied in triplicates. The experiments were repeated 3-5 times.
(§6) Sulphorhodamine B (SRB) is an anionic dye which binds to […] amino acids of cellular proteins. The determination of cytotoxic activity in the assay is based on the measurement of the amount of cellular proteins.
(§7) After the incubation is finished the attached cells are fixed with cold 50% TCA (4°C) at 4°C for 1 hour. Next, each well is washed with water and air dried, repeating this step 5 times.
(§8) 0.4% SRB solution (Sigma-Aldrich) dissolved in 1% acetic acid is added consecutively to each well and the staining is carried out for 30 minutes. The unbound dye is removed and the cells are washed 4 times with 1% acetic acid. Next, the plate is air dried for about 5 minutes.
(§9) The bound dye is dissolved by adding 10 mM Tris-base to each well and then OD is determined for wavelength 540 nm (Multiscan RC photometer, Labsystes, Helsinki).

[3] = system: Balb/3T3 (normal mouse fibroblasts); assay: Cytotoxic activity against normal cells, SRB test; assay type: cell-based; conditions: Balb/3T3, 72-hour culture
Procedure: as §1, §2, §3, §4, §5, §6, §7, §8, §9

[4] = system: HLMEC (normal human epithelium); assay: Cytotoxic activity against normal cells, SRB test; assay type: cell-based; conditions: 72-hour culture
Procedure: as §1, §2, §3, §4, §5, §6, §7, §8, §9

Lovo (colorectal cancer) = assay: Anti-proliferative activity, SRB test; assay type: cell-based, human; conditions: 72-hour culture
Description: (§10) 4.1. Anti-proliferative activity evaluation using the SRB test [Skehan et al., J. Natl. Cancer Inst., 82: 1107-1112, 1990] against human cancer cell lines with diverse tissue origins and determination of the IC50 concentration: • a) colorectal cancer LoVo, • b) colorectal cancer LoVo/DX (with multidrug resistance), • c) breast cancer MCF-7, • d) prostate cancer LNCaP, • e) bladder cancer HCV29T, • f) kidney cancer A498, • g) lung cancer A549
as §3, §4, §5, §6, §7, §8, §9

LNCaP (prostate cancer) = assay: Anti-proliferative activity, SRB test; assay type: cell-based, human; conditions: 72-hour culture
Description: as §10, §3, §4, §5, §6, §7, §8, §9

MCF-7 (breast cancer) = assay: Anti-proliferative activity, SRB test; assay type: cell-based, human
Description: as §10, §3, §4, §5, §6, §7, §8, §9

[5] = system: Lovo/Dx (colorectal cancer with multidrug resistance); assay: Anti-proliferative activity, SRB test; assay type: cell-based, human; conditions: 72-hour culture
Description: as §10, §3, §4, §5, §6, §7, §8, §9

HCV29T (bladder cancer) = assay: Anti-proliferative activity, SRB test; assay type: cell-based, human; conditions: 72-hour culture
Description: as §10, §3, §4, §5, §6, §7, §8, §9

A549 (lung cancer) = assay: Anti-proliferative activity, SRB test; assay type: cell-based, human; conditions: A549, 72-hour culture
Description: as §10, §3, §4, §5, §6, §7, §8, §9

A498 (kidney cancer) = assay: Anti-proliferative activity, SRB test; assay type: cell-based, human; conditions: A498, 72-hour culture
Description: as §10, §3, §4, §5, §6, §7, §8, §9

[6] = system: HL-60 MX2 (promyelocytic leukemia with multidrug resistance); assay: Anti-proliferative activity, MTT test; assay type: cell-based, human
Procedure: (§11) 4.2. Anti-proliferative activity evaluation using the MTT test [Marcinkowska et al.: J. Steroid Biochem. Mol. 76: 71-78, 1998] against human cancer cell lines with diverse tissue origins and determination of the IC50 concentration: • a) promyelocytic leukemia HL-60, • b) promyelocytic leukemia HL-60/MX2 (with multidrug resistance)
as §3, §4, §5
(§12) The method involves a measurement of cell number increase inhibition utilizing the redox activity of mitochondria. The determination of biological activity with the MTT (3-(4,5-dimethylthiazol-2-yl)-2,5-diphenyltetrazolium bromide) assay is based on the assumption that reduction of the dye occurs only in viable cells. As a result of mitochondrial dehydrogenase activity the water-soluble tetrazolium salt (thiazolyl blue […] - MTT) is converted to water-insoluble formazan crystals. The quantity of the formed formazan crystals is proportional to the number of cells.
(§13) 3-4 hours before the end of cell incubation 20 µl of MTT solution (5 mg/ml) was added to each well. Next, 80 µl of dissolving mixture (with the following composition: 225 ml DMF (POCh), 67.5 g SDS (Sigma-Aldrich), 275 ml distilled H2O) was added. After 24 hours, formazan crystals were dissolved and OD of the samples was measured for wavelength 570 nm (Multiskan PC photometer, Labsystem, Helsinki).

[7] = system: HL-60 (promyelocytic leukemia); assay: Anti-proliferative activity, MTT test; assay type: cell-based, human; conditions: HL-60, 72-hour culture
Procedure: as §11, §3, §4, §5, §12, §13

[8] = Homo sapiens, MCF10, MCF-10, 72-hour culture, read-out: IC50
[9] = Homo sapiens, MCF7, MCF-7, 72-hour culture, read-out: IC50
[10] = Homo sapiens, HL60/MX2, HL-60 MX2, 72-hour culture, read-out: IC50

Compound	IC50 [1] [µM]	IC50 [2, 8] [µg/mL]	IC50 ([3]; Mus musculus, read-out: IC50) [µg/mL]	IC50 ([4]; Homo sapiens, read-out: IC50) [µg/mL]	IC50 (Lovo (colorectal cancer); Homo sapiens, read-out: IC50) [µg/mL]	IC50 (LNCaP (prostate cancer); Homo sapiens, read-out: IC50) [µg/mL]	IC50 (MCF-7 (breast cancer); [9]) [µg/mL]	IC50 ([5]; Homo sapiens, read-out: IC50) [µg/mL]	IC50 (HCV29T (bladder cancer); Homo sapiens, read-out: IC50) [µg/mL]	IC50 (A549 (lung cancer); Homo sapiens, read-out: IC50) [µg/mL]	IC50 (A498 (kidney cancer); Homo sapiens, read-out: IC50) [µg/mL]	IC50 [6, 10] [µg/mL]	IC50 ([7]; Homo sapiens, read-out: IC50) [µg/mL]	further results
CCOC(=O)C1(C(=O)OCC)Cc2cc(O)cc(O)c2C=N1 [Compound 4, 6,8-dihydroxy-3,4-dihydroisoquinoline-3,3-dicarboxylic acid diethyl ester]	1350													
O=C(O)C1Cc2cc(O)c(O)c(O)c2C=N1 (stereo not drawn) [Compound 8, 6,7,8-trihydroxy-3,4-dihydroisoquinoline-3-carboxylic acid]	3800	18.9 ± 11.4 (≈ 84.7 µM)	52.5 ± 22.3 (≈ 235 µM)	33.4 ± 5 (≈ 150 µM)	33.6 ± 9.5 (≈ 151 µM)	30.9 ± 5.7 (≈ 138 µM)	18.9 ± 11.4 (≈ 84.7 µM)	30.1 ± 2.3 (≈ 135 µM)	28.7 ± 7.2 (≈ 129 µM)	44.3 ± 6.7 (≈ 198 µM)	40 ± 18.4 (≈ 179 µM)	33.2 ± 2.7 (≈ 149 µM)	27.7 ± 4.3 (≈ 124 µM)	
CCOC(=O)C1(C(=O)OCC)Cc2cc(OCc3ccccc3)cc(OCc3ccccc3)c2C=N1 [Compound 3, 6,8-dibenzyloxy-3,4-dihydroisoquinoline-3,3-dicarboxylic acid diethyl ester]	28	15.3 (≈ 31.4 µM)	17.4 ± 7.9 (≈ 35.6 µM)	3.3 ± 0.3 (≈ 6.77 µM)	3.1 ± 0.3 (≈ 6.36 µM)	1.6 ± 0.3 (≈ 3.28 µM)	4.7 ± 0.8 (≈ 9.64 µM)	2 ± 0.8 (≈ 4.1 µM)	4.3 ± 0.7 (≈ 8.82 µM)	6.4 ± 2.3 (≈ 13.1 µM)	6.5 ± 1.5 (≈ 13.3 µM)	1.3 (≈ 2.67 µM)	0.12 (≈ 0.246 µM)	
N.N.[Cl][Pt][Cl] [Cisplatin, reference compound]														IC50 ([2]; MCF-10, 72-hour culture): 0.7 µg/mL; IC50 [3]: 2.4 ± 0.3 µg/mL; IC50 [4]: 2.6 ± 0.3 µg/mL; IC50 (Lovo (colorectal cancer)): 2.5 ± 1.3 µg/mL; IC50 (LNCaP (prostate cancer)): 6.2 ± 1.3 µg/mL; IC50 (MCF-7 (breast cancer); MCF-7, 72-hour culture): 3.6 ± 0.6 µg/mL; IC50 [5]: 3.0 ± 0.7 µg/mL; IC50 (HCV29T (bladder cancer)): 2.7 ± 0.6 µg/mL; IC50 (A549 (lung cancer)): 3.2 ± 1.0 µg/mL; IC50 (A498 (kidney cancer)): 2.8 ± 0.6 µg/mL; IC50 ([6]; HL-60 MX2, 72-hour culture): 0.32 ± 0.02 µg/mL; IC50 [7]: 0.4 ± 0.1 µg/mL
